Assay: xn = mol fraction of the nth substance listed
Details: 100 kPa, Liquid; for speed of sound: Sing-around technique in a fixed-path interferometer; for mass density: Vibrating tube method

CCOCCOCCOCC [diethylene glycol diethyl ether] + O
Details	mass density [kg/m3]	speed of sound [m/s]
283.15 K, x1 = 0.97	918.572	1305.3
283.15 K, x1 = 0.9742	918.371	1304.9
283.15 K, x1 = 0.9778	918.271	1303.9
283.15 K, x1 = 0.9836	917.783	1303.6
283.15 K, x1 = 0.9875	917.643	1304.4
283.15 K, x1 = 0.9911	917.567	1304.1
288.15 K, x1 = 0.97	913.742	1284.9
288.15 K, x1 = 0.9742	913.543	1284.6
288.15 K, x1 = 0.9778	913.443	1283.6
288.15 K, x1 = 0.9836	912.955	1283.3
288.15 K, x1 = 0.9875	912.82	1284
288.15 K, x1 = 0.9911	912.74	1284
293.15 K, x1 = 0.97	908.91	1264.8
293.15 K, x1 = 0.9742	908.705	1264.4
293.15 K, x1 = 0.9778	908.61	1263.6
293.15 K, x1 = 0.9836	908.126	1263.2
293.15 K, x1 = 0.9875	907.993	1263.9
293.15 K, x1 = 0.9911	907.914	1263.8
298.15 K, x1 = 0.97	904.074	1244.9
298.15 K, x1 = 0.9742	903.873	1244.6
298.15 K, x1 = 0.9778	903.775	1243.7
298.15 K, x1 = 0.9836	903.3	1243.4
298.15 K, x1 = 0.9875	903.166	1244.1
298.15 K, x1 = 0.9911	903.09	1244
303.15 K, x1 = 0.97	899.235	1225.2
303.15 K, x1 = 0.9742	899.035	1224.9
303.15 K, x1 = 0.9778	898.937	1224
303.15 K, x1 = 0.9836	898.467	1223.6
303.15 K, x1 = 0.9875	898.334	1224.4
303.15 K, x1 = 0.9911	898.256	1224.2
308.15 K, x1 = 0.97	894.389	1205.6
308.15 K, x1 = 0.9742	894.189	1205.3
308.15 K, x1 = 0.9778	894.092	1204.6
308.15 K, x1 = 0.9836	893.628	1204.1
308.15 K, x1 = 0.9875	893.496	1204.7
308.15 K, x1 = 0.9911	893.419	1204.6
313.15 K, x1 = 0.97	889.537	1186.4
313.15 K, x1 = 0.9742	889.339	1186
313.15 K, x1 = 0.9778	889.241	1185.3
313.15 K, x1 = 0.9836	888.783	1184.7
313.15 K, x1 = 0.9875	888.652	1184.7
313.15 K, x1 = 0.9911	888.577	1185.3
323.15 K, x1 = 0.97	879.812	1148.2
323.15 K, x1 = 0.9742	879.619	1147.7
323.15 K, x1 = 0.9778	879.518	1147.3
323.15 K, x1 = 0.9836	879.074	1146.7
323.15 K, x1 = 0.9875	878.945	1146.3
323.15 K, x1 = 0.9911	878.873	1146.2
333.15 K, x1 = 0.97	870.056	1111
333.15 K, x1 = 0.9742	869.867	1110.4
333.15 K, x1 = 0.9778	869.76	1110
333.15 K, x1 = 0.9836	869.332	1109.5
333.15 K, x1 = 0.9875	869.203	1109.1
333.15 K, x1 = 0.9911	869.134	1108.9
343.15 K, x1 = 0.97	860.264	1074.5
343.15 K, x1 = 0.9742	860.076	1074
343.15 K, x1 = 0.9778	859.966	1073.7
343.15 K, x1 = 0.9836	859.55	1073.1
343.15 K, x1 = 0.9875	859.411	1072.6
343.15 K, x1 = 0.9911	859.346	1072.7

— the NIST ThermoML archive (doi:10.1021/acs.jced.5b00662)
